Experimental data reported in PubChem BioAssay (NCI).
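Five concentrations, 48 hours, 96-well plates. Abbreviation: GI50, concentration required for 50% inhibition of growth. Definition used: TGI = concentration required for complete inhibition of growth.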

How the values were obtained:
Assay in all cases: inhibition of tumour cell growth, NCI panel, 48 h
MDA-MB-435 = test system: MDA-MB-435
SNB-19 CNS = test system: SNB-19 CNS
NCI-H522 lung = test system: NCI-H522 lung
NCI-H460 lung = test system: NCI-H460 lung
A498 renal = test system: A498 renal
HL-60(TB) leukemia = test system: HL-60(TB) leukemia
PC-3 prostate = test system: PC-3 prostate
SK-OV-3 ovarian = test system: SK-OV-3 ovarian
SF-295 CNS = test system: SF-295 CNS
EKVX NSCLC = test system: EKVX NSCLC

CCSc1nc(NC(C)c2ccccc2)c2cnn(CO)c2n1 (stereo unspecified)
GI50 (MDA-MB-435): 21.1 µM
TGI (MDA-MB-435): > 100 µM
GI50 (SNB-19 CNS): > 100 µM
TGI (SNB-19 CNS): > 100 µM
GI50 (NCI-H522 lung): 14.7 µM
TGI (NCI-H522 lung): > 100 µM
GI50 (NCI-H460 lung): 32.8 µM
TGI (NCI-H460 lung): > 100 µM
GI50 (A498 renal): 27 µM
TGI (A498 renal): > 100 µM
GI50 (HL-60(TB) leukemia): > 100 µM
TGI (HL-60(TB) leukemia): > 100 µM
GI50 (PC-3 prostate): 38.5 µM
TGI (PC-3 prostate): > 100 µM
GI50 (SK-OV-3 ovarian): 45.8 µM
TGI (SK-OV-3 ovarian): > 100 µM
GI50 (SF-295 CNS): 35.2 µM
TGI (SF-295 CNS): > 100 µM

O=C(/C=C\c1cc(Br)ccc1O)/C=C/c1cc(Br)ccc1O
GI50 (MDA-MB-435): 0.355 µM
TGI (MDA-MB-435): 1.53 µM
GI50 (SNB-19 CNS): 1.03 µM
TGI (SNB-19 CNS): 2.55 µM
GI50 (NCI-H460 lung): 1.57 µM
TGI (NCI-H460 lung): 3.91 µM
GI50 (A498 renal): 1.65 µM
TGI (A498 renal): 3.26 µM
GI50 (HL-60(TB) leukemia): 0.385 µM
TGI (HL-60(TB) leukemia): 4.26 µM
GI50 (PC-3 prostate): 0.63 µM
TGI (PC-3 prostate): 3.08 µM
GI50 (EKVX NSCLC): 1.54 µM
TGI (EKVX NSCLC): 3.18 µM
GI50 (SK-OV-3 ovarian): 4.41 µM
TGI (SK-OV-3 ovarian): 12.3 µM
GI50 (SF-295 CNS): 0.538 µM
TGI (SF-295 CNS): 1.93 µM

O=c1c2cccc(F)c2sc2c(NCCCNCCO)nc3ccccc3c12
GI50 (MDA-MB-435): 1.63 µM
TGI (MDA-MB-435): 3 µM
GI50 (SNB-19 CNS): 1.65 µM
TGI (SNB-19 CNS): 3.17 µM
GI50 (NCI-H522 lung): 1.76 µM
TGI (NCI-H522 lung): 3.69 µM
GI50 (NCI-H460 lung): 0.653 µM
TGI (NCI-H460 lung): 1.95 µM
GI50 (A498 renal): 1.5 µM
TGI (A498 renal): 2.88 µM
GI50 (HL-60(TB) leukemia): 1.92 µM
TGI (HL-60(TB) leukemia): 3.91 µM
GI50 (PC-3 prostate): 1.66 µM
TGI (PC-3 prostate): 3.31 µM
GI50 (EKVX NSCLC): 1.29 µM
TGI (EKVX NSCLC): 2.64 µM
GI50 (SF-295 CNS): 1.76 µM
TGI (SF-295 CNS): 3.19 µM

COc1ccc(C2=NN(C=O)C(c3ccc(OS(=O)(=O)c4ccc(C)cc4)c(OC)c3)C2)cc1 (stereo unspecified)
GI50 (MDA-MB-435): 2.4 µM
TGI (MDA-MB-435): 9.97 µM
GI50 (SNB-19 CNS): 11.7 µM
TGI (SNB-19 CNS): > 100 µM
GI50 (NCI-H522 lung): 4.22 µM
TGI (NCI-H522 lung): 90.4 µM
GI50 (NCI-H460 lung): 8.86 µM
TGI (NCI-H460 lung): > 100 µM
GI50 (A498 renal): 1.81 µM
TGI (A498 renal): > 100 µM
GI50 (HL-60(TB) leukemia): 2.56 µM
TGI (HL-60(TB) leukemia): > 100 µM
GI50 (PC-3 prostate): 3.34 µM
TGI (PC-3 prostate): > 100 µM
GI50 (SK-OV-3 ovarian): 8.88 µM
TGI (SK-OV-3 ovarian): > 100 µM
GI50 (SF-295 CNS): 3.58 µM
TGI (SF-295 CNS): 25.2 µM

COc1ccc(CN2C(=O)/C(=C\C(=O)c3ccc(OCCN4CCCC4)cc3)c3ccccc32)cc1
GI50 (MDA-MB-435): 1.81 µM
TGI (MDA-MB-435): 3.74 µM
GI50 (SNB-19 CNS): 3.83 µM
TGI (SNB-19 CNS): 15.1 µM
GI50 (NCI-H460 lung): 2.03 µM
TGI (NCI-H460 lung): 3.8 µM
GI50 (A498 renal): 18.1 µM
TGI (A498 renal): 38.7 µM
GI50 (HL-60(TB) leukemia): 2.61 µM
TGI (HL-60(TB) leukemia): 6.7 µM
GI50 (PC-3 prostate): 2.35 µM
TGI (PC-3 prostate): 4.83 µM
GI50 (EKVX NSCLC): 11.3 µM
TGI (EKVX NSCLC): 34.2 µM
GI50 (SK-OV-3 ovarian): 18.6 µM
TGI (SK-OV-3 ovarian): 34 µM
GI50 (SF-295 CNS): 14.8 µM
TGI (SF-295 CNS): 36.8 µM

c1ccc(COCC[P+](c2ccccc2)(c2ccccc2)c2ccccc2)cc1
GI50 (MDA-MB-435): 0.601 µM
TGI (MDA-MB-435): 6.28 µM
GI50 (SNB-19 CNS): 1.03 µM
TGI (SNB-19 CNS): 10.7 µM
GI50 (NCI-H522 lung): 0.467 µM
TGI (NCI-H522 lung): 4.17 µM
GI50 (NCI-H460 lung): 1.5 µM
TGI (NCI-H460 lung): 10.7 µM
GI50 (A498 renal): 1.33 µM
TGI (A498 renal): 5.93 µM
GI50 (HL-60(TB) leukemia): 0.29 µM
TGI (HL-60(TB) leukemia): 1.39 µM
GI50 (PC-3 prostate): 0.519 µM
TGI (PC-3 prostate): 5.32 µM
GI50 (SK-OV-3 ovarian): 2.33 µM
TGI (SK-OV-3 ovarian): 9.93 µM
GI50 (SF-295 CNS): 1.39 µM
TGI (SF-295 CNS): 6.64 µM

Cc1cncc(-c2nc(NCCc3c[nH]c4ccccc34)c3ncn(C(C)C)c3n2)c1
GI50 (MDA-MB-435): 4.6 µM
TGI (MDA-MB-435): 17 µM
GI50 (SNB-19 CNS): 11.5 µM
TGI (SNB-19 CNS): 46.6 µM
GI50 (NCI-H522 lung): 5.66 µM
TGI (NCI-H522 lung): 23.2 µM
GI50 (NCI-H460 lung): 3.33 µM
TGI (NCI-H460 lung): 13.3 µM
GI50 (A498 renal): 3.4 µM
TGI (A498 renal): 16.9 µM
GI50 (PC-3 prostate): 3.98 µM
TGI (PC-3 prostate): 35.8 µM
GI50 (EKVX NSCLC): 6.77 µM
TGI (EKVX NSCLC): 35.5 µM
GI50 (SK-OV-3 ovarian): 5.76 µM
TGI (SK-OV-3 ovarian): 35.7 µM
GI50 (SF-295 CNS): 2.74 µM
TGI (SF-295 CNS): 10.8 µM
